Test results reported in ChEMBL document CHEMBL5226308, “Amide-Amine Replacement in Indole-2-carboxamides Yields Potent Mycobactericidal Agents with Improved Water Solubility” (ACS Med Chem Lett, 2021).
Active and inactive are the calls of the source. No cut-off for these calls is given here.

Columns and labels:
[1] = test system: Mycobacterium tuberculosis variant bovis; test: Inhibition of MmpL3 in Mycobacterium bovis BCG ATCC 35734 assessed as increase in TMM level at 4XMIC90 treated for 1 hr followed by incubation with [14C]acetate for 1 to 3 hrs by thin layer chromatography; conditions: time 2-4 hrs
[2] = test system: Mycobacterium tuberculosis variant bovis; test: Inhibition of MmpL3 in Mycobacterium bovis BCG ATCC 35734 assessed as reduction in TDM level at 4XMIC90 treated for 1 hr followed by incubation with [14C]acetate for 1 to 3 hrs by thin layer chromatography; conditions: time 2-4 hrs
[3] = test system: Mycobacterium tuberculosis variant bovis; test: Inhibition of MmpL3 C1932G/F644L mutant in Mycobacterium bovis BCG B47-4 assessed as reduction in TDM level at 1XMIC90 treated for 1 hr followed by incubation with [14C]acetate for 1 to 3 hrs by thin layer chromatography; conditions: time 2-4 hrs
[4] = test system: Mycobacterium tuberculosis variant bovis; test: Inhibition of MmpL3 C1932G/F644L mutant in Mycobacterium bovis BCG B47-4 assessed as increase in TMM level at 1XMIC90 treated for 1 hr followed by incubation with [14C]acetate for 1 to 3 hrs by thin layer chromatography; conditions: time 2-4 hrs
[5] = test system: Mycobacterium tuberculosis variant bovis; test: Inhibition of MmpL3 in Mycobacterium bovis BCG ATCC 35734 assessed as increase in TMM level at 1XMIC90 treated for 1 hr followed by incubation with [14C]acetate for 1 to 3 hrs by thin layer chromatography; conditions: time 2-4 hrs, TDE = time-dependent effect
[6] = test system: Mycobacterium tuberculosis variant bovis; test: Inhibition of MmpL3 in Mycobacterium bovis BCG ATCC 35734 assessed as reduction in TDM level at 1XMIC90 treated for 1 hr followed by incubation with [14C]acetate for 1 to 3 hrs by thin layer chromatography; conditions: time 2-4 hrs, TDE = time-dependent effect

In the case of `CC[C@@H](CO)NCCN[C@@H](CC)CO`, the inhibition [1] is reported as “inactive” and the inhibition [2] is reported as “inactive”.

With `FC(F)(F)c1ccc2cc(CNC3CCCCCCC3)[nH]c2c1` the inhibition [3] was “inactive”, the inhibition [4] was “inactive” and the inhibition [5] was “Tde”. The inhibition [6] was “Tde”.

In the case of `O=C(NC1CCCCCCC1)c1cc2ccccc2[se]1`, the inhibition [3] is reported as “inactive” and the inhibition [4] is reported as “inactive”.

In the case of `Cc1c(CN2CCN(C)CC2)cc(-c2ccc(Cl)cc2)n1-c1ccc(Cl)cc1`, the inhibition [3] is reported as “inactive”, the inhibition [4] is reported as “inactive” and the inhibition [5] is reported as “Tde”. The inhibition [6] was “Tde”.

With `O=C(NC1CCCCCCC1)c1cc2ccc(C(F)(F)F)cc2[nH]1` the inhibition [3] was “inactive”, the inhibition [4] was “inactive” and the inhibition [5] was “Tde”. The inhibition [6] was “Tde”.

For `c1ccc2[se]c(CNC3CCCCCCC3)cc2c1`, the inhibition [3] was “inactive” and the inhibition [4] was “inactive”.

In the case of `O=C(NC1CCCCCCC1)c1cc2ccccc2s1`, the inhibition [3] is reported as “inactive” and the inhibition [4] is reported as “inactive”.

With `c1ccc2sc(CNC3CCCCCCC3)cc2c1` the inhibition [3] was “inactive”, the inhibition [4] was “inactive” and the inhibition [5] was “Tde”. For the same molecule, the inhibition [6] was “Tde”.
